From paper PMC4999093, “Novel NAD^+-Farnesal Dehydrogenase from Polygonum minus Leaves. Purification and Characterization of Enzyme in Juvenile Hormone III Biosynthetic Pathway in Plant” (PLoS ONE, 2016)

Test system: T1, NAD^+-farnesal dehydrogenase (P. minus farnesal dehydrogenase)
T1 construct: native enzyme purified from leaves, untagged
Experiment: NADH formation at […] nm, Lineweaver-Burk
Format: biochemical, Persicaria minor
Conditions: 100 mM glycine-NaOH pH 9.5, 35°C

NC(=O)c1ccc[n+]([C@@H]2O[C@H](COP(=O)(O)OP(=O)(O)OC[C@H]3O[C@@H](n4cnc5c(N)ncnc54)[C@H](O)[C@@H]3O)[C@@H](O)[C@H]2O)c1 [NAD^+]
Km (co-substrate farnesal): 310 µM

CC(C)=CCC/C(C)=C/CC/C(C)=C/C=O (mixture of isomers) [Farnesal, 3,7,11-trimethyl-2,6,10-dodecatrienal]
Km (1.0 mM NAD+, substrate is a mixture of isomers): 130 µM

O=C/C=C/c1ccccc1 [trans-cinnamaldehyde]
Km (1.0 mM NAD+): 860 µM

C/C(C=O)=C\c1ccccc1 [α-methylcinnamaldehyde]
Km (1.0 mM NAD+): 1280 µM

CC(C)=CCCC(C)=CC=O (mixture of isomers) [Citral, 3,7-dimethyl-2,6-octadienal]
Km (1.0 mM NAD+, substrate is a mixture of geranial and neral): 690 µM
